Test results reported in PubChem BioAssay (NCI).
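GI50 = concentration required for 50% inhibition of growth. TGI: concentration producing complete growth inhibition.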

What was measured:
Assay in all cases: growth of human tumour cells (NCI), 384-well format
UO-31 renal = test system: UO-31 renal
LOX IMVI melanoma = test system: LOX IMVI melanoma
MDA-MB-435 melanoma = test system: MDA-MB-435 melanoma
NCI-H226 lung = test system: NCI-H226 lung
IGROV1 ovarian = test system: IGROV1 ovarian
ACHN renal = test system: ACHN renal
T-47D breast = test system: T-47D breast
SN12C renal = test system: SN12C renal
SF-268 CNS = test system: SF-268 CNS
HCC-2998 colon = test system: HCC-2998 colon
CCRF-CEM leukemia = test system: CCRF-CEM leukemia
CAKI-1 renal = test system: CAKI-1 renal
M14 melanoma = test system: M14 melanoma
SNB-75 CNS = test system: SNB-75 CNS
K-562 leukemia = test system: K-562 leukemia
NCI-H23 lung = test system: NCI-H23 lung
NCI-H460 NSCLC = test system: NCI-H460 NSCLC
PC-3 prostate = test system: PC-3 prostate
OVCAR-8 ovarian = test system: OVCAR-8 ovarian
NCI-H322M lung = test system: NCI-H322M lung
MOLT-4 leukemia = test system: MOLT-4 leukemia
EKVX NSCLC = test system: EKVX NSCLC
MCF7 breast = test system: MCF7 breast
MDA-MB-231 breast = test system: MDA-MB-231 breast
NCI/ADR-RES ovarian = test system: NCI/ADR-RES ovarian
SF-539 CNS = test system: SF-539 CNS
HS 578T breast = test system: HS 578T breast
A498 renal = test system: A498 renal
HL-60(TB) leukemia = test system: HL-60(TB) leukemia
786-0 renal = test system: 786-0 renal
SK-MEL-2 melanoma = test system: SK-MEL-2 melanoma
U251 glioblastoma = test system: U251 glioblastoma
SR leukemia = test system: SR leukemia
BT-549 breast = test system: BT-549 breast
TK-10 renal = test system: TK-10 renal
KM12 colon = test system: KM12 colon
UACC-62 melanoma = test system: UACC-62 melanoma
OVCAR-5 ovarian = test system: OVCAR-5 ovarian
A549 NSCLC = test system: A549 NSCLC
HT29 colon = test system: HT29 colon
HCT-116 colon = test system: HCT-116 colon
OVCAR-4 ovarian = test system: OVCAR-4 ovarian
RPMI-8226 leukemia = test system: RPMI-8226 leukemia
COLO 205 colon = test system: COLO 205 colon
SF-295 CNS = test system: SF-295 CNS
SK-MEL-5 melanoma = test system: SK-MEL-5 melanoma
MDA-MB-468 breast = test system: MDA-MB-468 breast
SK-MEL-28 melanoma = test system: SK-MEL-28 melanoma

Question: Which results are given for `NC(=O)[C@@H](CC1CC1)[C@@H](CCC(F)(F)F)C(=O)N[C@H]1N=C(c2ccccc2)c2cccc(F)c2NC1=O`?
Answer: GI50 (UO-31 renal): 17.6 µM; TGI (UO-31 renal): 69.1 µM; GI50 (LOX IMVI melanoma): 11.7 µM; TGI (LOX IMVI melanoma): 38.4 µM; GI50 (MDA-MB-435 melanoma): 19.2 µM; TGI (MDA-MB-435 melanoma): 43.7 µM; GI50 (NCI-H226 lung): 16.5 µM; TGI (NCI-H226 lung): 30.5 µM; GI50 (IGROV1 ovarian): 16.1 µM; TGI (IGROV1 ovarian): 40.4 µM; GI50 (ACHN renal): 20.8 µM; TGI (ACHN renal): > 64.5 µM; GI50 (T-47D breast): 1.94 µM; TGI (T-47D breast): 17.7 µM; GI50 (SN12C renal): 16.2 µM; TGI (SN12C renal): 31.2 µM; GI50 (SF-268 CNS): 7.01 µM; TGI (SF-268 CNS): 24.3 µM; GI50 (HCC-2998 colon): 23.8 µM; TGI (HCC-2998 colon): 84.3 µM; GI50 (CCRF-CEM leukemia): 9.79 µM; TGI (CCRF-CEM leukemia): > 64.3 µM; GI50 (CAKI-1 renal): 15 µM; TGI (CAKI-1 renal): 36.8 µM; GI50 (M14 melanoma): 18.5 µM; TGI (M14 melanoma): 43.3 µM; GI50 (SNB-75 CNS): 10.7 µM; TGI (SNB-75 CNS): 25.4 µM; GI50 (K-562 leukemia): 7.18 µM; TGI (K-562 leukemia): 62.6 µM; GI50 (NCI-H23 lung): 9.77 µM; TGI (NCI-H23 lung): 30 µM; GI50 (NCI-H460 NSCLC): 11.6 µM; TGI (NCI-H460 NSCLC): > 48.4 µM; GI50 (PC-3 prostate): 17.6 µM; TGI (PC-3 prostate): 34.2 µM; GI50 (OVCAR-8 ovarian): 16 µM; TGI (OVCAR-8 ovarian): 33.5 µM; GI50 (NCI-H322M lung): 12.4 µM; TGI (NCI-H322M lung): 40.6 µM; GI50 (MOLT-4 leukemia): 7.38 µM; TGI (MOLT-4 leukemia): 35 µM; GI50 (EKVX NSCLC): 7.61 µM; TGI (EKVX NSCLC): 32 µM; GI50 (MCF7 breast): 14.6 µM; TGI (MCF7 breast): 29.1 µM; GI50 (MDA-MB-231 breast): 14.4 µM; TGI (MDA-MB-231 breast): 28 µM; GI50 (NCI/ADR-RES ovarian): > 86.4 µM; TGI (NCI/ADR-RES ovarian): > 100 µM; GI50 (SF-539 CNS): 15.4 µM; TGI (SF-539 CNS): 29 µM; GI50 (HS 578T breast): 11.3 µM; TGI (HS 578T breast): 25.5 µM; GI50 (A498 renal): 15 µM; TGI (A498 renal): 43 µM; GI50 (HL-60(TB) leukemia): 29.7 µM; TGI (HL-60(TB) leukemia): > 100 µM; GI50 ([…]-0 renal): 20.3 µM; TGI (786-0 renal): > 67.6 µM; GI50 (SK-MEL-2 melanoma): 19.7 µM; TGI (SK-MEL-2 melanoma): 35.2 µM; GI50 (U251 glioblastoma): 17.7 µM; TGI (U251 glioblastoma): 34 µM; GI50 (SR leukemia): 13.9 µM; TGI (SR leukemia): 27.1 µM; GI50 (BT-549 breast): 17.8 µM; TGI (BT-549 breast): 35.2 µM; GI50 (TK-10 renal): 16.5 µM; TGI (TK-10 renal): 33 µM; GI50 (KM12 colon): > 51.9 µM; TGI (KM12 colon): > 100 µM; GI50 (UACC-62 melanoma): 14.7 µM; TGI (UACC-62 melanoma): 28.7 µM; GI50 (OVCAR-5 ovarian): 18.5 µM; TGI (OVCAR-5 ovarian): 47.1 µM; GI50 (A549 NSCLC): 15.7 µM; TGI (A549 NSCLC): 49.4 µM; GI50 (HT29 colon): 32.9 µM; TGI (HT29 colon): 98 µM; GI50 (HCT-116 colon): 10.5 µM; TGI (HCT-116 colon): 26.1 µM; GI50 (OVCAR-4 ovarian): 13.3 µM; TGI (OVCAR-4 ovarian): 28.1 µM; GI50 (RPMI-8226 leukemia): 16.2 µM; TGI (RPMI-8226 leukemia): 36.2 µM; GI50 (COLO 205 colon): > 38.8 µM; TGI (COLO 205 colon): > 60.3 µM; GI50 (SF-295 CNS): 17.8 µM; TGI (SF-295 CNS): 37.2 µM; GI50 (SK-MEL-5 melanoma): 9.41 µM; TGI (SK-MEL-5 melanoma): 24.1 µM; TGI (MDA-MB-468 breast): 2.52 µM; GI50 (SK-MEL-28 melanoma): 17.8 µM; TGI (SK-MEL-28 melanoma): 33.2 µM
